# Tests used:
# [1] = molecular target: T1, medaka Esr1 (mEsr1) (Oryzias latipes, UniProt P50241); experiment: Medaka Esr1 reporter gene assay (RGA), antagonist assay with 1 nM E2, HEK293 cells; type: cell-based, Japanese medaka (Oryzias latipes)
# T1 construct: expressed in transfected cells; host or cells: HEK293 (human embryonic kidney cells), transient transfection with FuGENE HD
# T1 sequence (P50241 1-620): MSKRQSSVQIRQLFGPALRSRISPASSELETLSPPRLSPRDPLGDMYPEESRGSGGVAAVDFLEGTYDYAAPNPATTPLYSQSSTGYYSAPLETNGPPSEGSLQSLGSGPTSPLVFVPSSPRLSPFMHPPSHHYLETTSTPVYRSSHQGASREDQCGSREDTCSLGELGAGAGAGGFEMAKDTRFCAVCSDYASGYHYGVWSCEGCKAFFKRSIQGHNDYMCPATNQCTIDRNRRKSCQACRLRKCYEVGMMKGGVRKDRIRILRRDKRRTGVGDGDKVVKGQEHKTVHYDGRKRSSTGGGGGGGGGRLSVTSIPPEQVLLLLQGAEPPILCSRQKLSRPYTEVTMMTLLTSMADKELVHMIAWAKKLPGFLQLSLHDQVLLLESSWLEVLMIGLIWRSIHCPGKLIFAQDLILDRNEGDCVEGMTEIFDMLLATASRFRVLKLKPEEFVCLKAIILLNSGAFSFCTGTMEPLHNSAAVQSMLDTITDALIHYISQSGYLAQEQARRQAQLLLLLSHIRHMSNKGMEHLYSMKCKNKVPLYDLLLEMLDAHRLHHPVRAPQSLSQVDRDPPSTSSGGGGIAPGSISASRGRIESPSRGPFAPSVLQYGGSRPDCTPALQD
# Experimental: To support interpretation of the biological effects observed in the FSTRA studies, in vitro RGAs using medaka Esr1 (mEsr1) and medaka ARβ (mARβ) were performed for the 16 test chemicals. In the present study, Esr1 and ARβ, which are ancestral subtypes among Esrs and ARs in Japanese medaka, were selected based on the phylogenetical analyses of Esr and AR with each receptor RGAs (Ogino et al., [2016], [2018]; Tohyama et al., [2015]).
# The mEsr1 RGA consisting of agonist and antagonist assays were performed according to the methods previously reported (Katsu et al., [2010]; Lange et al., [2012]; Miyagawa et al., [2014]). Briefly, human embryonic kidney cells 293 (HEK293), precultured, were seeded in 96‐well plates at 15,000 cells/well with 200 μl of culture medium, phenol‐red‐free Dulbecco's Modified Eagle's medium (ThermoFisher Scientific K.K., Tokyo, Japan) supplemented with 2‐mM L‐glutamine and 10% charcoal/dextran‐treated fetal bovine serum (Hyclone, UT, USA), and then incubated for 24 h in 5% CO2 at 37°C. After the 24‐h incubation, 20 μl of test medium containing 40 ng of medaka Esr1/pcDNA3.1, 80 ng of ERE‐TK‐Luc, and 20 ng of pRL‐TK‐Rlu and 1.2 μL of transfection reagent FuGENE HD (Promega, WI, USA) were added into each well. The assay plates were incubated for another 4 h in order to transfect the three vectors into the HEK293 cells. After the vectors were successfully transfected, in agonist assay, 24 μl of concentrated test chemical solution was applied to the test medium in the plate wells. […] After chemical treatment for 40 h, luciferase activity of the cells was measured, and the promoter activity was calculated as firefly (Photinus pyralis)‐/sea pansy (Renilla reniformis)‐luciferase activity in each well. The luciferase activities were quantified by a chemiluminescence assay with Dual‐Luciferase Reporter Assay System (Promega) in accordance with the manufacturer's instructions, and luminescence intensity of firefly and sea pansy luciferin was measured using a luminometer, TriStar LB941 (Berthold Technology, Oak Ridge, TN, USA).
# Effect concentrations, that is, EC50 (a half maximal effective concentration) in the agonist assay and IC50 (a half maximal inhibitory concentration) in the antagonist assay, were estimated by nonlinear curve fitting (e.g., three parameters logistic regression curve) using GraphPad Prism (GraphPad Software Inc., La Jolla, CA, USA).
# [2] = test system: Japanese medaka (Oryzias latipes); experiment: Fish short-term reproduction assay (FSTRA, OECD TG229), 21-day flow-through exposure; details: for Fertility rate (%) / Mortality (%) Female / Mortality (%) Male / Number of fertilized eggs / Number of total eggs / SSC Female / SSC Male / VTG (ng/mg of liver) Female / VTG (ng/mg of liver) Male: 21 days; for GSI Female / GSI Male / HSI Female / HSI Male / Length Female / Length Male / Weight Female / Weight Male: at completion of exposure
# Experimental: The experimental studies on the FSTRA for the 16 chemicals were conducted in two laboratories in Japan, the National Institute for Environmental Studies (NIES, Lab‐1) and the Institute of Environmental Ecology, IDEA Consultants Inc. (Lab‐2), in accordance with OECD TG229 (OECD, [2012a]) (Table 1).
# The NIES‐R strain of Japanese medaka (O. latipes), one of the orange‐red varieties, was used in all the 16 chemical studies. For the studies, healthy and mature male and female medakas at 16 ± 2 weeks old were selected from a single‐stock population, which were bred within the test facilities. The test fish were maintained in conditions similar to the assay for at least 7 days, and spawning status was checked during the acclimation period. On the day the chemical exposure commenced, to ensure balanced distribution of test fish between the treatment groups for the reproductive status of the fish, the replicate vessels (fish tanks), with each containing three male and female medaka, were distributed to each treatment and control group, for example, by a randomized block design based on the number of fertilized eggs laid in the last 5–7 days during the acclimation, in each assay.
# The water solubility of the test chemical was also taken into consideration when deciding the highest test concentration. To set the lower concentrations, a spacing factor ranging between two and five was used. All assays included a dilution water control (DWC).
# Test solutions at the selected concentrations were prepared by diluting a stock solution, which was prepared by an adequate method depending on the physicochemical properties of the test chemicals, for example, by simply mixing the test chemical in dilution water by stirring and/or sonicating for an appropriate time or by using a solid–liquid saturator. In the two laboratories, flow‐through exposure systems, in which a series of test solutions at the target concentrations can be continuously prepared and delivered to test vessels at controlled flow rates (Haselman et al., [2016]; Watanabe et al., [2017]), were used for the exposure experiments.
# In the FSTRA, three mature adult males and females in a test vessel were exposed together to the test chemicals in flow‐through condition for 3 weeks. In all the assays, each treatment group, including the DWC group, contained four replicate tanks. During the exposure period, the fish were fed a sufficient amount of live brine shrimp nauplii (newly hatched Artemia sp.) for daily spawning ad libitum. Fecal material in the tanks was appropriately removed by siphoning after feeding. Water temperature of test solutions was recorded for at least one vessel in each treatment and control group every day and for all vessels at least once a week. Furthermore, dissolved oxygen and pH of test solutions were measured for all test vessels at least once a week. Mortality and abnormal behavior and appearance in the fish exposed to test chemicals were daily observed, and any fish that died were removed from the tank as soon as possible. To assess the reproductive status, all eggs females spawned were collected every day. At the completion of the chemical exposure, surviving fish in each tank were sampled.
# The eggs females released on the bottom of the tank were collected by siphoning, and the egg clutches still on female abdomen were carefully picked from the body of the females captured using a small net. All the eggs collected were microscopically observed and separately counted for fertilized and unfertilized.
compound,measurement,setting,value
"CC/C(=C(\c1ccc(O)cc1)c1ccc(OCCN(C)C)cc1)c1ccccc1 [4HTAM, 4‐hydroxytamoxifen]",IC50,[1],0.52 nM
"C[C@]12CCC(=O)C[C@@H]1CC[C@@H]1[C@@H]2CC[C@]2(C)[C@@H](O)CC[C@@H]12 [DHT, 5α‐Dihydrotestosterone]","effect on male SSC, in words",[2]; 21-day exposure,statistical significance
same,LOEC on female SSC (papillary process formation on anal fin),"[2]; 21-day exposure, measured conc.",1.03 µg/L
same,Fertility rate (%),[2]; measured conc. 0.063 μg/L,94%
same,Mortality (%) Female,[2]; measured conc. 0.063 μg/L,0%
same,Mortality (%) Male,[2]; measured conc. 0.063 μg/L,0%
same,Number of fertilized eggs,[2]; measured conc. 0.063 μg/L,17
same,Number of total eggs,[2]; measured conc. 0.063 μg/L,18 ± 5.6 /female/day
same,SSC Female,[2]; measured conc. 0.063 μg/L,0 ± 0
same,SSC Male,[2]; measured conc. 0.063 μg/L,72 ± 12
same,VTG (ng/mg of liver) Female,[2]; measured conc. 0.063 μg/L,617 ± 374 ng/mg of liver
same,VTG (ng/mg of liver) Male,[2]; measured conc. 0.063 μg/L,1.6 ± 0.4 ng/mg of liver
same,GSI Female,[2]; measured conc. 0.063 μg/L,10.5%
same,GSI Male,[2]; measured conc. 0.063 μg/L,1.15%
same,HSI Female,[2]; measured conc. 0.063 μg/L,3.6%
same,HSI Male,[2]; measured conc. 0.063 μg/L,1.5%
same,Length Female,[2]; measured conc. 0.063 μg/L,32.9 mm
same,Length Male,[2]; measured conc. 0.063 μg/L,33.4 mm
same,Weight Female,[2]; measured conc. 0.063 μg/L,354 mg
same,Weight Male,[2]; measured conc. 0.063 μg/L,377 mg
same,Fertility rate (%),[2]; measured conc. 2.97 μg/L,84%
same,Mortality (%) Female,[2]; measured conc. 2.97 μg/L,0%
same,Mortality (%) Male,[2]; measured conc. 2.97 μg/L,0%
same,Number of fertilized eggs,[2]; measured conc. 2.97 μg/L,12
same,Number of total eggs,[2]; measured conc. 2.97 μg/L,14 ± 3.7 /female/day
same,SSC Female,[2]; measured conc. 2.97 μg/L,22 ± 14
same,SSC Male,[2]; measured conc. 2.97 μg/L,78 ± 16
same,VTG (ng/mg of liver) Female,[2]; measured conc. 2.97 μg/L,587 ± 306 ng/mg of liver
same,VTG (ng/mg of liver) Male,[2]; measured conc. 2.97 μg/L,1.4 ± 0.7 ng/mg of liver
same,GSI Female,[2]; measured conc. 2.97 μg/L,21.1%
same,GSI Male,[2]; measured conc. 2.97 μg/L,1.21%
same,HSI Female,[2]; measured conc. 2.97 μg/L,3.8%
same,HSI Male,[2]; measured conc. 2.97 μg/L,1.7%
same,Length Female,[2]; measured conc. 2.97 μg/L,32.8 mm
same,Length Male,[2]; measured conc. 2.97 μg/L,33.6 mm
same,Weight Female,[2]; measured conc. 2.97 μg/L,425 mg
same,Weight Male,[2]; measured conc. 2.97 μg/L,411 mg
same,"effect on fecundity (number of total eggs), in words","[2]; within the test concentrations, 21-day exposure",significantly reduced

# Source: article PMC8359193, “Summary of reference chemicals evaluated by the fish short‐term reproduction assay, OECD TG229, using Japanese Medaka, Oryzias latipes” (Journal of Applied Toxicology, 2021)
